Laboratory results taken from article PMC6273138, “Inhibitory Effects of Aschantin on Cytochrome P450 and Uridine 5′-diphospho-glucuronosyltransferase Enzyme Activities in Human Liver Microsomes” (Molecules, 2016).

Legend:
[1] = molecular target: T1, UGT2B7 (Homo sapiens, UniProt P16662); test: UGT2B7-catalyzed naloxone 3-β-D-glucuronidation inhibition in pooled human liver microsomes; type: in vitro ADME
T1 construct: using pooled human liver microsomes incubated with the cocktail of UGT substrates; tissue Corning Life Sciences 452161; host or cells: pooled human liver microsomes
T1 sequence (P16662 24-529): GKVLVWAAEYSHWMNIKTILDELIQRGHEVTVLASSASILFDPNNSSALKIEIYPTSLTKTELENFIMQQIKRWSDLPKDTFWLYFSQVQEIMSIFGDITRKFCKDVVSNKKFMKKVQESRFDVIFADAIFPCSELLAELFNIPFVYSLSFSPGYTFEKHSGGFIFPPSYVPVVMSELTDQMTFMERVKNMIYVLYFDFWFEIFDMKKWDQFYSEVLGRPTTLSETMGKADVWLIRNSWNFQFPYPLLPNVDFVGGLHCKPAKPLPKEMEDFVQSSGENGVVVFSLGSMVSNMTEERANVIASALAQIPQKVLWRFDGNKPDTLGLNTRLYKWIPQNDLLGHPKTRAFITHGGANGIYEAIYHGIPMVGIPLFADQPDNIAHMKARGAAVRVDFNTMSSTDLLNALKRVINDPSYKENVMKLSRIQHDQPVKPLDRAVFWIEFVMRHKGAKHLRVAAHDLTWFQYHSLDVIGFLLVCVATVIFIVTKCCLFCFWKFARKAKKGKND
Procedure: (§1) The extents of aschantin on UGT1A1, UGT1A3, UGT1A4, UGT1A6, UGT1A9, and UGT2B7 were evaluated by LC-MS/MS, using pooled human liver microsomes incubated with the cocktail of UGT substrates. The method was modified from that of Joo et al..
(§2) The metabolites formed from the six UGT cocktail substrates were simultaneously measured using the LC-MS/MS method. […] The mass spectrometer was equipped with an ESI source and was operated in both positive and negative ion modes. […] Each metabolite was quantified via SRM in the negative ion (chenodeoxycholic acid 24-acyl-β-glucuronide, 567.2 > 391.0; mycophenolic acid glucuronide, 495.2 > 318.9; propofol glucuronide, 353.3 > 177.1) and positive ion (SN-38 glucuronide, 569.0 > 393.0; trifluoperazine glucuronide, 584.2 > 408.1; N-acetylserotonin-β-D-glucuronide, 395.2 > 219.0; naloxone 3-β-D-glucuronide, 504.0 > 310.0; meloxicam, 352.0 > 115.1) modes.

[2] = molecular target: T2, UGT1A3 (Homo sapiens, UniProt P35503); test: UGT1A3-catalyzed chenodeoxycholic acid 24-acyl-glucuronidation inhibition in pooled human liver microsomes; type: in vitro ADME
T2 construct: using pooled human liver microsomes incubated with the cocktail of UGT substrates; tissue Corning Life Sciences 452161; host or cells: pooled human liver microsomes
T2 sequence (P35503 29-534): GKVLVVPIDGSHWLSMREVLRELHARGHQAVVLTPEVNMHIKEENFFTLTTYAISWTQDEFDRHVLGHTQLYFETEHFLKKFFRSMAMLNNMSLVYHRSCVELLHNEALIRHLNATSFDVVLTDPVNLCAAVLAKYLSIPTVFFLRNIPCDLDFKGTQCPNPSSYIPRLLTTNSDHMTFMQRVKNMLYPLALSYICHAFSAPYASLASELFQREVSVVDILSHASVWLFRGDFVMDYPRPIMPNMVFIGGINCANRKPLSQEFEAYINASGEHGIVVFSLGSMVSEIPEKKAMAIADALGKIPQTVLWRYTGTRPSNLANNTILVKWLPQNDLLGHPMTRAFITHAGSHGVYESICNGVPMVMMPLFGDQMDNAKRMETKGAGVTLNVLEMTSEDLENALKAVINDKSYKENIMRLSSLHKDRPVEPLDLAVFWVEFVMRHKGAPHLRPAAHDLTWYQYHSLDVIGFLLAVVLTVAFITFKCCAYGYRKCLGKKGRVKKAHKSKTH
Procedure: as §1, §2

[3] = molecular target: T3, CYP2C8 (Homo sapiens, UniProt P10632); test: CYP2C8-catalyzed amodiaquine N-de-ethylase inhibition in pooled human liver microsomes; details: for IC50: CYP2C8 amodiaquine N-de-ethylase, 2.0 µM amodiaquine
T3 sequence (P10632 1-490): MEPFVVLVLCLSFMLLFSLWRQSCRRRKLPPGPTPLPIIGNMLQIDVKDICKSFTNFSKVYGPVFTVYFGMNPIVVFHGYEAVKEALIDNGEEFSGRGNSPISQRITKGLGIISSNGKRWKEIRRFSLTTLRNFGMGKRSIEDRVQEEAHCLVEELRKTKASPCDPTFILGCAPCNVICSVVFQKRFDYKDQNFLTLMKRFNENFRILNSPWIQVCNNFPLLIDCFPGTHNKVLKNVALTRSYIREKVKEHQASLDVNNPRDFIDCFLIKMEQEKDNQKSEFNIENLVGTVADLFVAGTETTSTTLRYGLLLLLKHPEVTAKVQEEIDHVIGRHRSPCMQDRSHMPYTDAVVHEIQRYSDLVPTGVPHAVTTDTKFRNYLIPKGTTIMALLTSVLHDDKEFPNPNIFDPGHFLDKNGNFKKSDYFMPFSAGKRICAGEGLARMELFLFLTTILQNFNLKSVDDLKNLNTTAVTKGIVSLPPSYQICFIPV

[4] = aschantin at 200 µM, human liver microsomes

IC50 ([1]; UGT2B7-catalyzed naloxone 3-β-D-glucuronidation, 1 µM naloxone, pooled human liver microsomes): > 200 µM
inhibition of UGT2B7-catalyzed naloxone 3-β-D-glucuronidation [1, 4]: not inhibited
IC50 ([2]; UGT1A3-catalyzed chenodeoxycholic acid 24-acyl-glucuronidation, 2 µM chenodeoxycholic acid, pooled human liver microsomes): > 200 µM
inhibition of UGT1A3-catalyzed chenodeoxycholic acid 24-acyl-glucuronidation [2, 4]: not inhibited
IC50 ([3]; IC50 No Pre-incubation, pooled human liver microsomes, no pre-incubation): 27.8 µM
IC50 ([3]; IC50 With Pre-incubation, 30 min pre-incubation with microsomes and NADPH): 5.3 µM
IC50 shift at 0.5 h ([3]; human, pooled human liver microsomes, pH 7.4, probe amodiaquine (2.0 µM), N-de-ethylation): > 2.5
SMILES: COc1cc([C@H]2OC[C@H]3[C@@H]2CO[C@@H]3c2ccc3c(c2)OCO3)cc(OC)c1OC [Aschantin]
